In the assay the target is T1, human LPA1 (Homo sapiens, UniProt Q92633).
T1 construct: expressed in transfected cells; host or cells: Chinese hamster ovary (CHO) cells
The assay can be described thus: LPA1 functional antagonist assay (LPA-induced calcium flux). In kind it is cell-based. The method, then:
The effectiveness of compounds of the present invention as LPA1 inhibitors can be determined in an LPA1 functional antagonist assay as follows:
The cells were then equilibrated to room temperature for 30 minutes before the assay. […] IC50 values were determined by fitting data to a 4-parameter logistic equation (GraphPad Prism, San Diego CA).

[1] abbreviates: CHO cells overexpressing human LPA1, calcium flux induced by 10 nM LPA, read-out: hLPA1 IC50.

Where two headings read alike, the source gives them in different places.

Data on 29 molecules can be found in patent US12466804B2 (BRISTOL-MYERS SQUIBB COMPANY, priority 2019, dated 2025).

For orientation: IC50 means the concentration at which inhibition is half-maximal.

T1 sequence (Q92633 whole entry): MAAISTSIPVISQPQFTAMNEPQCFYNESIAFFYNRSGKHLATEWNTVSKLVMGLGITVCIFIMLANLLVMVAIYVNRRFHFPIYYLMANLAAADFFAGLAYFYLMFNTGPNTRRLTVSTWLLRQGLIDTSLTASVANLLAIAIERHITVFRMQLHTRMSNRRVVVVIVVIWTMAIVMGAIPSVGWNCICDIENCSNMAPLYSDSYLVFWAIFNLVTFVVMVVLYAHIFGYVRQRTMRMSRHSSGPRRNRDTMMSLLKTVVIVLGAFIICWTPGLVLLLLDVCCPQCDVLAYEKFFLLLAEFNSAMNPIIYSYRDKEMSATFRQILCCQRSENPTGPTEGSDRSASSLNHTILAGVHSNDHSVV

Take `CCCN(C)C(=O)OCc1c(-c2ccc(OC[C@@H]3CC[C@H]3C(=O)O)c(C)n2)nnn1C` (racemic) [Example 46]: the concentration for half-maximal inhibition (IC50) under setting [1] turned out to be 0.275 µM.

For the molecule `Cc1nc(-c2nnn(C)c2CNc2nccc(C(C)C)n2)ccc1OC[C@@H]1CC[C@H]1C(=O)O` (single isomer, unassigned) [Example 24], the IC50 under setting [1] is 1.15 µM.

For the molecule `Cc1noc(-c2ccc(OC[C@@H]3CC[C@H]3C(=O)O)cn2)c1CNc1nccc(-c2ccccn2)n1` (racemic) [Example 2, (±)-(1R,2R)-2-(((6-(3-methyl-4-(((4-(pyridin-2-yl)pyrimidin-2-yl)amino)methyl)isoxazol-5-yl)pyridin-3-yl)oxy)methyl)cyclobutane-1-carboxylic acid], the IC50 under setting [1] was 0.0154 µM.

Regarding `Cc1nc(-c2nnn(C)c2COc2noc(C3CC3)n2)ccc1OC[C@@H]1CC[C@H]1C(=O)O` (racemic) [Example 15, (±)-(1R,2R)-2-(((6-(5-(((5-cyclopropyl-1,2,4-oxadiazol-3-yl)oxy)methyl)-1-methyl-1H-1,2,3-triazol-4-yl)-2-methylpyridin-3-yl)oxy)methyl)cyclobutane-1-carboxylic acid], the IC50 under setting [1] is 0.128 µM.

Consider `Cc1nc(-c2nnn(C)c2CNc2nccc(Oc3ccccc3)n2)ccc1OC[C@@H]1CC[C@H]1C(=O)O` (racemic) [Example 22, (±)-(1R,2R)-2-(((2-methyl-6-(1-methyl-5-(((4-phenoxypyrimidin-2-yl)amino)methyl)-1H-1,2,3-triazol-4-yl)pyridin-3-yl)oxy)methyl)cyclobutane-1-carboxylic acid], for which the IC50 under setting [1] came to 0.149 µM.

As to `Cc1nc(-c2nnn(C)c2COC(=O)N(C)CC2CC2)ccc1OC[C@@H]1CC[C@H]1C(=O)O` (racemic) [Example 31, (±)-(1R,2R)-2-(((6-(5-((((Cyclopropylmethyl)(methyl)carbamoyl)oxy)methyl)-1-methyl-1H-1,2,3-triazol-4-yl)-2-methylpyridin-3-yl)oxy)methyl) cyclobutanecarboxylic acid], under setting [1], the half-maximal inhibitory concentration (IC50) is 0.184 µM.

As for `CCc1cc(OCc2c(-c3ccc(OC[C@H]4CC[C@@H]4C(=O)O)c(C)n3)nnn2C)ncn1` (single isomer, unassigned) [Example 13], the IC50 under setting [1] was determined as 0.028 µM.

Regarding `Cc1nc(-c2nnn(C)c2COC(=O)N(C)CC2CCC2)ccc1O[C@H]1C[C@H](C(=O)O)C1` [Example 9, trans-3-((6-(5-((((cyclobutylmethyl)(methyl)carbamoyl)oxy)methyl)-1-methyl-1H-1,2,3-triazol-4-yl)-2-methylpyridin-3-yl)oxy)cyclobutane-1-carboxylic acid], the IC50 under setting [1] stood at 0.278 µM.

Consider `CCc1cc(OCc2c(-c3ccc(OC[C@@H]4CC[C@H]4C(=O)O)c(C)n3)nnn2C)ncn1` (racemic) [Example 11, (±)-(1R,2R)-2-(((6-(5-(((6-ethylpyrimidin-4-yl)oxy)methyl)-1-methyl-1H-1,2,3-triazol-4-yl)-2-methylpyridin-3-yl)oxy)methyl)cyclobutane-1-carboxylic acid], for which the IC50 under setting [1] was determined as 0.042 µM.

Consider `Cc1nc(-c2nnn(C)c2COC(=O)N(C)CC2CCC2)ccc1OCC12CCC(C(=O)O)(C1)C2` [Example 57, 4-(((6-(5-((((cyclobutylmethyl)(methyl)carbamoyl)oxy)methyl)-1-methyl-1H-1,2,3-triazol-4-yl)-2-methylpyridin-3-yl)oxy)methyl)bicyclo[2.1.1]hexane-1-carboxylic acid], for which the half-maximal inhibitory concentration (IC50) under setting [1] was found to be 0.082 µM.

On to `Cc1noc(-c2ccc(OC[C@@H]3CC[C@H]3C(=O)O)cn2)c1CNc1nccc(-c2ccccn2)n1` (single isomer, unassigned) [Example 3], for which, under setting [1], the half-inhibitory concentration (IC50) was 0.007 µM.

Consider `Cc1noc(-c2ccc(OC[C@@H]3CC[C@H]3C(=O)O)cc2)c1COC(=O)N(C)C1CCCC1` (racemic) [Example 1, (±)-(1R,2R)-2-((4-(4-(((cyclopentyl(methyl)carbamoyl)oxy)methyl)-3-methylisoxazol-5-yl)phenoxy)methyl)cyclobutane-1-carboxylic acid], for which the IC50 under setting [1] was 0.187 µM.

Take `Cc1nc(-c2nnn(C)c2COC(=O)N(C)C2CCCC2)ccc1OC[C@@H]1CC[C@H]1C(=O)O` (racemic) [Example 47, (±)-(1R,2R)-2-(((6-(5-(((cyclopentyl(methyl)carbamoyl)oxy)methyl)-1-methyl-1H-1,2,3-triazol-4-yl)-2-methyl-pyridin-3-yl)oxy)methyl)cyclobutane carboxylic acid]: the IC50 under setting [1] stood at 0.023 µM.

As for `Cc1nc(-c2nnn(C)c2NC(=O)OCC2CC2)ccc1OC[C@H]1CC[C@@H]1C(=O)O` (racemic) [Example 59, (±)-(1S,2S)-2-(((6-(5-(((cyclopropyl-methoxy)carbonyl)amino)-1-methyl-1H-1,2,3-triazol-4-yl)-2-methyl-pyridin-3-yl)oxy)methyl)cyclobutane-1-carboxylic acid], the IC50 under setting [1] is 3.59 µM.

Take `Cn1nnc(-c2ccc(OC[C@@H]3CC[C@H]3C(=O)O)cn2)c1CNc1nccc(-c2ccccn2)n1` (single isomer, unassigned) [Example 28]: the half-inhibitory concentration (IC50) under setting [1] is 0.067 µM.

As to `Cc1nc(-c2nnn(C)c2COC(=O)N(C)CC2CCC2)ccc1OC[C@H]1CC[C@@H]1C(=O)O` (single isomer, unassigned) [Example 8], the IC50 under setting [1] is 0.006 µM.

Turning to `Cn1nnc(-c2ccc(OC[C@@H]3CC[C@H]3C(=O)O)cn2)c1CNc1nccc(-c2ccccn2)n1` (racemic) [Example 27, (±)-(1R,2R)-2-(((6-(1-methyl-5-(((4-(pyridin-2-yl)pyrimidin-2-yl)amino)methyl)-1H-1,2,3-triazol-4-yl)pyridin-3-yl)oxy)methyl)cyclobutane-1-carboxylic acid], the IC50 under setting [1] is 0.049 µM.

Take `Cc1nc(-c2nnn(C)c2CNc2noc(CCC(C)C)n2)ccc1OCC12CC(C(=O)O)(C1)C2` [Example 55, 3-(((6-(5-(((5-isopentyl-1,2,4-oxadiazol-3-yl)amino)methyl)-1-methyl-1H-1,2,3-triazol-4-yl)-2-methylpyridin-3-yl)oxy)methyl)bicyclo[1.1.1]pentane-1-carboxylic acid]: the IC50 under setting [1] amounted to 1.98 µM.

`Cc1nc(-c2nnn(C)c2COC(=O)N(C)CC2CCC2)ccc1OC[C@@H]1CC[C@H]1C(=O)O` (racemic) [Example 6, (±)-(1R,2R)-2-(((6-(5-((((cyclobutylmethyl)(methyl)carbamoyl)oxy)methyl)-1-methyl-1H-1,2,3-triazol-4-yl)-2-methylpyridin-3-yl)oxy)methyl)cyclobutane-1-carboxylic acid]: the IC50 under setting [1] stood at 0.027 µM.

`CN(CC1CCC1)C(=O)OCc1c(-c2ccc(OCC34CC(C(=O)O)(C3)C4)cn2)nnn1C` [Example 54, 3-(((6-(5-((((cyclobutylmethyl)(methyl)carbamoyl)oxy)methyl)-1-methyl-1H-1,2,3-triazol-4-yl)pyridin-3-yl)oxy)methyl)bicyclo[1.1.1]pentane-1-carboxylic acid]: the 50% inhibitory concentration (IC50) stood at 0.427 µM.

`Cc1nc(-c2nnn(C)c2CNC(=O)OCc2ccccc2)ccc1OC[C@@H]1CC[C@H]1C(=O)O` (racemic) [Example 32, (±)-(1R,2R)-2-(((6-(5-((((Benzyloxy)carbonyl)amino)methyl)-1-methyl-1H-1,2,3-triazol-4-yl)-2-methylpyridin-3-yl)oxy)methyl)cyclobutanecarboxylic acid]: the half-inhibitory concentration (IC50) under setting [1] stood at 0.07 µM.

`CCc1cc(OCc2c(-c3ccc(OC[C@@H]4CC[C@H]4C(=O)O)c(C)n3)nnn2C)ncn1` (single isomer, unassigned) [Example 12]: the IC50 under setting [1] was 0.077 µM.

On to `Cn1nnc(-c2ccc(OC[C@H]3CC[C@@H]3C(=O)O)cn2)c1CNc1nccc(-c2ccccn2)n1` (single isomer, unassigned) [Example 29], for which the half-inhibitory concentration (IC50) under setting [1] amounted to 0.186 µM.

For `Cc1nc(-c2nnn(C)c2CNC(=O)OCCC2CC2)ccc1OC[C@@H]1CC[C@H]1C(=O)O` (racemic) [Example 33, (±)-(1R,2R)-2-(((6-(5-((((2-Cyclopropylethoxy)carbonyl)amino)methyl)-1-methyl-1H-1,2,3-triazol-4-yl)-2-methylpyridin-3-yl)oxy)methyl)cyclobutanecarboxylic acid], the concentration for half-maximal inhibition (IC50) under setting [1] stood at 0.326 µM.

For `Cc1nc(-c2nnn(C)c2Cn2nnnc2CC2CC2)ccc1OC[C@@H]1CC[C@H]1C(=O)O` (racemic) [Example 37, (±)-(1R,2R)-2-(((6-(5-((5-(Cyclopropylmethyl)-1H-tetrazol-1-yl)methyl)-1-methyl-1H-1,2,3-triazol-4-yl)-2-methylpyridin-3-yl)oxy)methyl)cyclobutane-1-carboxylic acid], under setting [1], the half-inhibitory concentration (IC50) amounted to 0.267 µM.

Consider `Cc1nc(-c2nnn(C)c2COC(=O)N(C)CC2CCC2)ccc1OCC12CC(C(=O)O)(C1)C2` [Example 52, 3-(((6-(5-((((cyclobutylmethyl)(methyl)carbamoyl)oxy)methyl)-1-methyl-1H-1,2,3-triazol-4-yl)-2-methylpyridin-3-yl)oxy)methyl)bicyclo[1.1.1]pentane-1-carboxylic acid], for which the 50% inhibitory concentration (IC50) under setting [1] turned out to be 0.372 µM.

In the case of `Cc1nc(-c2nnn(C)c2CNc2ncc(-c3ccccn3)o2)ccc1OC[C@@H]1CC[C@H]1C(=O)O` (racemic) [Example 40, (±)-(1R,2R)-2-(((2-methyl-6-(1-methyl-5-(((5-(pyridin-2-yl)oxazol-2-yl)amino)methyl)-1H-1,2,3-triazol-4-yl)pyridin-3-yl)oxy)methyl)cyclobutanecarboxylic acid], the half-inhibitory concentration (IC50) under setting [1] is 0.52 µM.

`CCOc1ccnc(NCc2c(-c3ccc(OC[C@@H]4CC[C@H]4C(=O)O)c(C)n3)nnn2C)n1` (racemic) [Example 21, (±)-(1R,2R)-2-(((6-(5-(((4-ethoxy-pyrimidin-2-yl)amino)methyl)-1-methyl-1H-1,2,3-triazol-4-yl)-2-methylpyridin-3-yl)oxy)methyl)cyclobutane-1-carboxylic acid]: the concentration for half-maximal inhibition (IC50) under setting [1] worked out at 0.024 µM.

As to `Cc1nc(-c2nnn(C)c2Cn2nnc(CC3CC3)n2)ccc1OC[C@@H]1CC[C@H]1C(=O)O` (single isomer, unassigned) [Example 38], the IC50 under setting [1] was found to be 0.063 µM.
